From PMC11047580, “Design and Synthesis of Novel Amino and Acetamidoaurones with Antimicrobial Activities” (Antibiotics, 2024)
≈ marks a conversion by molar mass, not a printed value.

Assays:
[1] = test system: P. aeruginosa ATCC9027; assay: MIC assay; assay type: cell-based, Pseudomonas aeruginosa; details: two-fold serial dilutions in liquid media, n = 2–3
[2] = test system: M. smegmatis ATCC700084; assay: MIC assay (REMA); assay type: cell-based, Mycobacterium smegmatis; details: n = 2–3
[3] = test system: B. subtilis ATCC6633; assay: MIC assay; assay type: cell-based, Bacillus subtilis; details: two-fold serial dilutions in liquid media, n = 2–3
[4] = test system: C. albicans DSM10697; assay: MIC assay; assay type: cell-based, Candida albicans; details: two-fold serial dilutions in liquid media, n = 2–3
[5] = test system: S. aureus ATCC6538P; assay: MIC assay; assay type: cell-based, Staphylococcus aureus; details: two-fold serial dilutions in liquid media, n = 2–3
[6] = test system: E. coli ATCC8739; assay: MIC assay; assay type: cell-based, Escherichia coli; details: two-fold serial dilutions in liquid media, n = 2–3
[7] = Pseudomonas aeruginosa, ATCC9027
[8] = Mycolicibacterium smegmatis, ATCC700084, REMA microdilution
[9] = Staphylococcus aureus, ATCC6538P

Compound	MIC [1, 7] [µM]	melting point [°C]	MIC [2, 8] [µM]	MIC ([3]; Bacillus subtilis, ATCC6633) [µM]	MIC ([4]; Candida albicans, DSM10697) [µM]	MIC [5, 9] [µM]	MIC ([6]; Escherichia coli, ATCC8739) [µM]	MIC [1] [µM]	MIC ([2]; REMA microdilution) [µM]	MIC [3] [µM]	MIC [4] [µM]	MIC [5] [µM]	MIC [6] [µM]
Nc1ccc2c(c1)C(=O)/C(=C/c1cccc(C(F)(F)F)c1)O2 [Compound 30, (Z)-5-amino-2-(3-(trifluoromethyl)benzylidene)benzofuran-3(2H)-one]	> 100	> 350	> 100	> 100	> 100	> 100	> 100						
CC(=O)Nc1ccc2c(c1)C(=O)/C(=C/c1cccc(C(F)(F)F)c1)O2 [Compound 29, (Z)-N-(3-oxo-2-(3-(trifluoromethyl)benzylidene)-2,3-dihydrobenzofuran-5-yl)acetamide]	> 100	252.1	> 100	> 100	> 100	> 100	> 100						
Nc1ccc2c(c1)C(=O)/C(=C/c1ccc(OCc3ccccc3)cc1)O2 [Compound 13, (Z)-5-amino-2-(4-(benzyloxy)benzylidene)benzofuran-3(2H)-one]	> 100	141.6	> 100	100 (≈ 34.3 µg/mL)	> 100	> 100	> 100						
CC(=O)Nc1ccc2c(c1)C(=O)/C(=C/c1cccc(Oc3ccccc3)c1)O2 [Compound 14, (Z)-N-(3-oxo-2-(3-phenoxybenzylidene)-2,3-dihydrobenzofuran-5-yl)acetamide]	> 100	196.4	> 100	> 100	> 100	> 100	> 100						
Nc1ccc2c(c1)C(=O)/C(=C/c1ccc(F)cc1)O2 [Compound 28, (Z)-5-amino-2-(4-fluorobenzylidene)benzofuran-3(2H)-one]	> 100	164.4	> 100	> 100	> 100	> 100	> 100						
CC(=O)Nc1ccc2c(c1)C(=O)/C(=C/c1ccc(C(=O)O)cc1)O2 [Compound 31, (Z)-4-((5-acetamido-3-oxobenzofuran-2(3H)-ylidene)methyl)benzoic acid]	> 100		100 (≈ 32.3 µg/mL)	50 (≈ 16.2 µg/mL)	> 100	100 (≈ 32.3 µg/mL)	> 100						
COc1ccc(/C=C2\Oc3ccc(N)cc3C2=O)cc1 [Compound 9, (Z)-5-amino-2-(4-methoxybenzylidene)benzofuran-3(2H)-one]	> 100		> 100	> 100	> 100	> 100	> 100						
COc1ccccc1C=C1Oc2ccc(NC(C)=O)cc2C1=O [Compound 4]								>100	>100	50 (≈ 15.5 µg/mL)	>100	100 (≈ 30.9 µg/mL)	>100
COc1ccc(/C=C2\Oc3ccc(NC(C)=O)cc3C2=O)cc1 [Compound 6, (Z)-N-(2-(4-methoxybenzylidene)-3-oxo-2,3-dihydrobenzofuran-5-yl)acetamide]	> 100	252	> 100	> 100	> 100	> 100	> 100						
Nc1ccc2c(c1)C(=O)/C(=C/c1cccc(O)c1)O2 [Compound 33, (Z)-5-amino-2-(3-hydroxybenzylidene)benzofuran-3(2H)-one]								>100	>100	>100	>100	>100	>100
CC(C)Oc1ccc(/C=C2\Oc3ccc(N)cc3C2=O)cc1 [Compound 23, (Z)-5-amino-2-(4-isopropoxybenzylidene)benzofuran-3(2H)-one]	> 100	> 350	> 100	> 100	> 100	> 100	> 100						
Nc1ccc2c(c1)C(=O)/C(=C/c1ccccc1F)O2 [Compound 26, (Z)-5-amino-2-(2-fluorobenzylidene)benzofuran-3(2H)-one]	> 100		> 100	50 (≈ 12.8 µg/mL)	> 100	> 100	> 100						
